Measurements: patent publication US10568876B2, “Tetrahydroisoquinoline derivatives useful as inhibitors of diacylglyceride O-acyltransferase 2” (Merck Sharp & Dohme Corp., priority 2014, dated 2020)

Target: hDGAT2 (Homo sapiens (Human), UniProt Q96PD7)
Test: DGAT2 Enzymatic Activity Assay
Type: biochemical
Conditions: hDGAT2 Sf-9 membrane prep; 25 μM diolein, 10 μM oleoyl-CoA; triolein product by LC/MS/MS; read-out: IC50 values for inhibition of DGAT2
Outline: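 Membranes from Sf-9 cells expressing untagged hDGAT2 (10 ng/μL) incubated at room temperature with 25 μM diolein and 10 μM oleoyl-CoA in 100 mM Tris pH 7.0, 20 mM MgCl2, 5% ethanol. Triolein product quantified by LC/MS/MS against spiked internal standard; IC50 from 4-parameter sigmoidal fit.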

hDGAT2, sequence (Q96PD7 whole entry): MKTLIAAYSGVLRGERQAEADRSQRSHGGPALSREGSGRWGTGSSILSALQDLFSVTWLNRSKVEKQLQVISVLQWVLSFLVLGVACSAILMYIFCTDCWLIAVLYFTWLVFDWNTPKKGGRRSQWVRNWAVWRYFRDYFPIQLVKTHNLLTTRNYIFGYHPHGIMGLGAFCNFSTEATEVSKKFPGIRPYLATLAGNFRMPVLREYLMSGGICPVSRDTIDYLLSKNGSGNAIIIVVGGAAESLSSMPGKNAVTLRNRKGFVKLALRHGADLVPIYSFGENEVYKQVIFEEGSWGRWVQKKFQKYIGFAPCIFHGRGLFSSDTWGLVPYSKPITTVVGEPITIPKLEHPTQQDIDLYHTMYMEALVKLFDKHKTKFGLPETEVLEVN

SMILES	IC50
Cc1noc(C2CC2C(=O)NCc2ccc(-c3cccc(OC(F)(F)F)c3)c3c2CN(C(=O)NC2CCS(=O)(=O)C2)CC3)n1 (stereo not drawn) [Example 78, N-(1,1-dioxidotetrahydrothiophen-3-yl)-8-((2-(3-methyl-1,2,4-oxadiazol-5-yl)cyclopropanecarboxamido)methyl)-5-(3-(trifluoromethoxy)phenyl)-3,4-dihydroisoquinoline-2(1H)-carboxamide]	892 nM
CCCNC(=O)N1CCc2c(-c3cccc(OC)c3)ccc(CNC(=O)[C@@H]3C[C@H]3c3ccccc3)c2C1 (relative stereo) [Example 70]	20.4 nM
Cc1noc([C@@H]2C[C@H]2C(=O)NCc2ccc(-c3cccc(OC(F)(F)F)c3)c3c2CN(Cc2noc(C4CC4)n2)CC3)n1 (relative stereo) [Example 101, (trans)-N-((2-((5-cyclopropyl-1,2,4-oxadiazol-3-yl)methyl)-5-(3-(trifluoromethoxy)phenyl)-1,2,3,4-tetrahydroisoquinolin-8-yl)methyl)-2-(3-methyl-1,2,4-oxadiazol-5-yl)cyclopropanecarboxamide]	4500 nM
COC(=O)c1cccc(-c2ccc(CNC(=O)C3CC3c3ccccc3)c3c2CCN(Cc2ccc(F)cc2)C3)c1 (stereo not drawn) [Example 98, methyl 3-(2-(4-fluorobenzyl)-8-((2-phenylcyclopropanecarboxamido)methyl)-1,2,3,4-tetrahydroisoquinolin-5-yl)benzoate]	2680 nM
COc1cccc(-c2ccc(CNC(=O)C3CC3c3ccccc3)c3c2CCN(c2ncccn2)C3)c1 (stereo not drawn) [Example 110, N-((5-(3-methoxyphenyl)-2-(pyrimidin-2-yl)-1,2,3,4-tetrahydroisoquinolin-8-yl)methyl)-2-phenylcyclopropanecarboxamide]	3200 nM
COc1cccc(-c2ccc(CNC(=O)[C@@H]3C[C@H]3c3ccccc3)c3c2CCN(C(=O)C(C)(C)O)C3)c1 (relative stereo) [Example 117, (trans)-N-((2-(2-hydroxy-2-methylpropanoyl)-5-(3-methoxyphenyl)-1,2,3,4-tetrahydroisoquinolin-8-yl)methyl)-2-phenylcyclopropanecarboxamide]	831 nM
CC(C)(C)NC(=O)N1CCc2c(-c3cccc(C(C)(C)O)c3)ccc(CNC(=O)[C@@H]3C[C@H]3c3ccccc3)c2C1 (relative stereo) [Example 52, N-(tert-butyl)-5-(3-(2-hydroxypropan-2-yl)phenyl)-8-(((trans)-2-phenylcyclopropanecarboxamido)methyl)-3,4-dihydroisoquinoline-2(1H)-carboxamide]	20.2 nM
CC(C)(C)NC(=O)N1CCc2c(-c3cccc(-n4ccnn4)c3)ccc(CNC(=O)[C@@H]3C[C@H]3c3ccccc3)c2C1 (relative stereo) [Example 5, 5-(3-(1H-1,2,3-triazol-1-yl)phenyl)-N-(tert-butyl)-8-(((trans)-2-phenylcyclopropanecarboxamido)methyl)-3,4-dihydroisoquinoline-2(1H)-carboxamide]	11.4 nM
CC(C)Cn1cc(-c2ccc(CNC(=O)[C@@H]3C[C@H]3c3ccccc3)c3c2CCN(C(=O)NC(C)(C)C)C3)cn1 (relative stereo) [Example 37, N-(tert-butyl)-5-(1-isobutyl-1H-pyrazol-4-yl)-8-(((trans)-2-phenylcyclopropanecarboxamido)methyl)-3,4-dihydroisoquinoline-2(1H)-carboxamide]	95.6 nM
COc1cccc(-c2ccc(CNC(=O)C3CC3c3ccccc3)c3c2CCN(CC(F)(F)F)C3)c1 (stereo not drawn) [Example 93, N-((5-(3-methoxyphenyl)-2-(2,2,2-trifluoroethyl)-1,2,3,4-tetrahydroisoquinolin-8-yl)methyl)-2-phenylcyclopropanecarboxamide]	1220 nM
Cc1noc([C@H]2C[C@@H]2C(=O)NCc2ccc(-c3cccc(C(F)(F)F)c3)c3c2CN(C(=O)C(C)(C)O)CC3)n1 (stereo in doubt) [Example 116, (trans)-N-((2-(2-hydroxy-2-methylpropanoyl)-5-(3-(trifluoromethyl)phenyl)-1,2,3,4-tetrahydroisoquinolin-8-yl)methyl)-2-(3-methyl-1,2,4-oxadiazol-5-yl)cyclopropanecarboxamide]	1580 nM
COC(=O)c1cccc(-c2ccc(CNC(=O)C3CC3c3ccccc3)c3c2CCN(Cc2ncn(C)c2C)C3)c1 (stereo not drawn) [Example 95, methyl 3-(2-((1,5-dimethyl-1H-imidazol-4-yl)methyl)-8-((2-phenylcyclopropanecarboxamido)methyl)-1,2,3,4-tetrahydroisoquinolin-5-yl)benzoate]	3780 nM
COc1cccc(-c2ccc(CNC(=O)[C@@H]3C[C@H]3c3ccccc3)c3c2CCN(C(=O)Nc2cccnc2)C3)c1 (relative stereo) [Example 24, 5-(3-methoxyphenyl)-8-(((trans)-2-phenylcyclopropanecarboxamido)methyl)-N-(pyridin-3-yl)-3,4-dihydroisoquinoline-2(1H)-carboxamide]	238 nM
Cc1noc(C)c1-c1ccc(CNC(=O)[C@@H]2C[C@H]2c2ccccc2)c2c1CCN(C(=O)NC(C)(C)C)C2 (relative stereo) [Example 41, N-(tert-butyl)-5-(3,5-dimethylisoxazol-4-yl)-8-(((trans)-2-phenylcyclopropanecarboxamido)methyl)-3,4-dihydroisoquinoline-2(1H)-carboxamide]	1440 nM
Cc1noc([C@@H]2C[C@H]2C(=O)NCc2ccc(-c3cccc(OC(F)(F)F)c3)c3c2CN(Cc2scnc2C)CC3)n1 (relative stereo) [Example 106, (trans)-2-(3-methyl-1,2,4-oxadiazol-5-yl)-N-((2-((4-methylthiazol-5-yl)methyl)-5-(3-(trifluoromethoxy)phenyl)-1,2,3,4-tetrahydroisoquinolin-8-yl)methyl)cyclopropanecarboxamide]	1840 nM
Cc1noc([C@@H]2C[C@H]2C(=O)NCc2ccc(-c3cccc(OC(F)(F)F)c3)c3c2CN(CC(=O)N2CCOCC2(C)C)CC3)n1 (relative stereo) [Example 91, (trans)-N-((2-(2-(3,3-dimethylmorpholino)-2-oxoethyl)-5-(3-(trifluoromethoxy)phenyl)-1,2,3,4-tetrahydroisoquinolin-8-yl)methyl)-2-(3-methyl-1,2,4-oxadiazol-5-yl)cyclopropanecarboxamide]	4300 nM
COC[C@H]1CCC[C@H]1NC(=O)CN1CCc2c(-c3cccc(OC(F)(F)F)c3)ccc(CNC(=O)C3CC3c3nc(C)no3)c2C1 (stereo in doubt) [Example 86, N-((2-(2-(((trans)-2-(methoxymethyl)cyclopentyl)amino)-2-oxoethyl)-5-(3-(trifluoromethoxy)phenyl)-1,2,3,4-tetrahydroisoquinolin-8-yl)methyl)-2-(3-methyl-1,2,4-oxadiazol-5-yl)cyclopropanecarboxamide]	2290 nM
Cc1noc([C@@H]2C[C@H]2C(=O)NCc2ccc(-c3cccc(OC(F)(F)F)c3)c3c2CN(Cc2ccncn2)CC3)n1 (relative stereo) [Example 105, (trans)-2-(3-methyl-1,2,4-oxadiazol-5-yl)-N-((2-(pyrimidin-4-ylmethyl)-5-(3-(trifluoromethoxy)phenyl)-1,2,3,4-tetrahydroisoquinolin-8-yl)methyl)cyclopropanecarboxamide]	2610 nM
Cc1noc([C@@H]2CC2C(=O)NCc2ccc(-c3cccc(OC(F)(F)F)c3)c3c2CN(CC(=O)N2[C@H](C)COC[C@H]2C)CC3)n1 (stereo partly drawn) [Example 108, (trans)-N-((2-(2-((3R,5R)-3,5-dimethylmorpholino)-2-oxoethyl)-5-(3-(trifluoromethoxy)phenyl)-1,2,3,4-tetrahydroisoquinolin-8-yl)methyl)-2-(3-methyl-1,2,4-oxadiazol-5-yl)cyclopropanecarboxamide]	7380 nM
COC(=O)c1cccc(-c2ccc(CNC(=O)C3CC34CCCCC4)c3c2CCN(C(=O)NC(C)(C)C)C3)c1 (stereo not drawn) [Example 17, methyl 3-(2-(tert-butylcarbamoyl)-8-((spiro[2.5]octane-1-carboxamido)methyl)-1,2,3,4-tetrahydroisoquinolin-5-yl)benzoate]	2.2 nM
COc1cccc(-c2ccc(CNC(=O)C3CC3c3cccnc3)c3c2CCN(C(=O)NC(C)(C)C)C3)c1 (stereo not drawn) [Example 13, N-(tert-butyl)-5-(3-methoxyphenyl)-8-((2-(pyridin-3-yl)cyclopropanecarboxamido)methyl)-3,4-dihydroisoquinoline-2(1H)-carboxamide]	6.1 nM
Cc1noc(C2CC2C(=O)NCc2ccc(-c3cccc(OC(F)(F)F)c3)c3c2CN(CC(=O)N[C@H](C)c2ccccc2)CC3)n1 (stereo partly drawn) [Example 88, 2-(3-methyl-1,2,4-oxadiazol-5-yl)-N-((2-(2-oxo-2-(((trans)-1-phenylethyl)amino)ethyl)-5-(3-(trifluoromethoxy)phenyl)-1,2,3,4-tetrahydroisoquinolin-8-yl)methyl)cyclopropanecarboxamide]	7600 nM
COc1cccc(-c2ccc(CNC(=O)[C@@H]3C[C@H]3c3ccccc3)c3c2CCN(C(=O)NC2(C)COC2)C3)c1 (relative stereo) [Example 68, 5-(3-methoxyphenyl)-N-(3-methyloxetan-3-yl)-8-(((trans)-2-phenylcyclopropanecarboxamido)methyl)-3,4-dihydroisoquinoline-2(1H)-carboxamide]	13.8 nM
Cc1noc(C2CC2C(=O)NCc2ccc(-c3cccc(OC(F)(F)F)c3)c3c2CN(C(=O)NC(C)(C)C)CC3)n1 (stereo not drawn) [Example 1, N-(tert-butyl)-8-(((trans)-2-(3-methyl-1,2,4-oxadiazol-5-yl)cyclopropanecarboxamide)methyl)-5-(3-(trifluoromethoxy)phenyl)-3,4-dihydroisoquinoline-2(1H)-carboxamide]	3.6 nM
